Assay results from patent US10155760B2, “Biaryl kinase inhibitors” (BRISTOL-MYERS SQUIBB COMPANY, priority 2014, dated 2018).
Blank lines part the entries; values can stand above or below the compound they belong to.

Legend:
[1] = system: HCV; details: Huh-7.5 cells; cited from earlier work
[2] = system: HCV; details: Huh-7.5 cells; cited from earlier work; remark: listed apart in the source
[3] = system: PC12 cells; details: cited from earlier work
[4] = target: GST-Xa-hAAK1 (Homo sapiens (Human), UniProt Q2M2I8); experiment: AAK1 Kinase Assay; format: biochemical; details: ATP 22 μM; GST-Xa-hAAK1 3.5 nM; 3 hours at room temperature
GST-Xa-hAAK1, sequence (Q2M2I8 whole entry): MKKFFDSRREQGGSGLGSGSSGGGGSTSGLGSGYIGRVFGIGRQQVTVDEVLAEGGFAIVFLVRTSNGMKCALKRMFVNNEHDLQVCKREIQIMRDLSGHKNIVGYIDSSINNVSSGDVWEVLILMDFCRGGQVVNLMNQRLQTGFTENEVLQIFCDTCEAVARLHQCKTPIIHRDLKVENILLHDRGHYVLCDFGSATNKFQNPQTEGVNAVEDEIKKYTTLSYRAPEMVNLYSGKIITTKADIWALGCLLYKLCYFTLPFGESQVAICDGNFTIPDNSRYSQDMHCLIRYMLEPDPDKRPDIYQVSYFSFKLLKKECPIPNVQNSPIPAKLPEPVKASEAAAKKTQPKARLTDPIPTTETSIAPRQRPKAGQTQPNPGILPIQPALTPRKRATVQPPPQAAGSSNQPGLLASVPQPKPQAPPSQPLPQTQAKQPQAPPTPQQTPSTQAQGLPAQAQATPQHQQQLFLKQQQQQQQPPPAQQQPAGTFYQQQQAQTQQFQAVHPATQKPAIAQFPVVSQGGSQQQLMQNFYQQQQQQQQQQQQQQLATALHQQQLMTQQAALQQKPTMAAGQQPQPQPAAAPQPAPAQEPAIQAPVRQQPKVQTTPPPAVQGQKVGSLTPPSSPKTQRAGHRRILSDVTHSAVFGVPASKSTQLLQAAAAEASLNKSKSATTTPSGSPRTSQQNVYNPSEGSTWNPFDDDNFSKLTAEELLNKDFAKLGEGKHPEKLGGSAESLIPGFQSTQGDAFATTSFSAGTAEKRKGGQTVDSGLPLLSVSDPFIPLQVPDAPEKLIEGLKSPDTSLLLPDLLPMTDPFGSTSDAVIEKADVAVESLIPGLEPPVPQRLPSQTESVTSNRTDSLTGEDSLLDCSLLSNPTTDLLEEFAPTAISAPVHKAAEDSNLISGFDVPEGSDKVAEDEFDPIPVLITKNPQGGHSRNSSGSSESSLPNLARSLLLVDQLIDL
Method: The assays were performed in U-bottom 384-well plates. […] The reactions were initiated by the combination of bacterially expressed, GST-Xa-hAAK1 with substrates and test compounds. The reactions were incubated at room temperature for 3 hours and terminated by adding 60 μl of 35 mM EDTA buffer to each sample. The reactions were analyzed on the Caliper LabChip 3000 (Caliper, Hopkinton, Mass.) by electrophoretic separation of the fluorescent substrate and phosphorylated product. […] Compounds were dissolved at 10 mM in dimethylsulfoxide (DMSO) and evaluated at eleven concentrations. IC50 values were derived by non-linear regression analysis.

SMILES: CCN(CC)CCNC(=O)c1c(C)[nH]c(/C=C2\C(=O)Nc3ccc(F)cc32)c1C [sunitinib]
- effect on HCV entry [1]: inhibit HCV entry
- effect on HCV virion assembly [2]: reduced HCV virion assembly

SMILES: COC(=O)[C@@]1(O)C[C@H]2O[C@]1(C)n1c3ccccc3c3c4c(c5c6ccccc6n2c5c31)C(=O)NC4 [Example K252a, K252a]
- effect on Neuregulin-1 induced neurite outgrowth [3]: potentiation of Neuregulin-1 induced neurite outgrowth

- IC50 [4]: 4.8 nM
SMILES: CC(C)C[C@](C)(N)COc1ccc(-c2ccnc3cc(F)ccc23)nc1Cl [Example 136, (S)-1-((2-chloro-6-(7-fluoroquinolin-4-yl)pyridin-3-yl)oxy)-2,4-dimethylpentan-2-amine]
